The record followed here is ChEMBL document CHEMBL1156402, “Two new furanoditerpenes from Saururus chinenesis and their effects on the activation of peroxisome proliferator-activated receptor gamma” (J Nat Prod, 2002).

In test [1] the target is T1, Peroxisome proliferator-activated receptor gamma (Homo sapiens) (UniProt P37231).
T1 sequence (whole entry): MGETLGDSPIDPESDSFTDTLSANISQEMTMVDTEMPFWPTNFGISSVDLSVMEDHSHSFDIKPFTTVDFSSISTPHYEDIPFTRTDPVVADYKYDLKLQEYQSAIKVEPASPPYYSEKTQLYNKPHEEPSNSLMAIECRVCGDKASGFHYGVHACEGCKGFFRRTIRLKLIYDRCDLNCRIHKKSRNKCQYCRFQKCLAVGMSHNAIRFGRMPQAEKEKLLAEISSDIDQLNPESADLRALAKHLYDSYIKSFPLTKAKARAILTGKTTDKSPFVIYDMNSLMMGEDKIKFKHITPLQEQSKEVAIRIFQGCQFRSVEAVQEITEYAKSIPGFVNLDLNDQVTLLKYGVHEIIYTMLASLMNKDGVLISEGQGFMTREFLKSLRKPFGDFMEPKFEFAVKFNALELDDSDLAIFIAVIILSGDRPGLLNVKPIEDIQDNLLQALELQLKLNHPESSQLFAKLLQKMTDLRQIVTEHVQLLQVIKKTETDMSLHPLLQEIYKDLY
The test is described as follows: Agonist activity at human PPARgamma expressed in mouse NIH/3T3 cells assessed as receptor activation at 100 uM after 16 hrs by luciferase based reporter gene assay relative to control. In kind it is functional, cell-based. As to conditions: NIH3T3. Background: In a reporter assay the amount or activity of a reporter protein is the signal.

Test [2] deals with T2, Peroxisome proliferator-activated receptor gamma (Homo sapiens, UniProt P37231).
T2 sequence (P37231 whole entry): T1 sequence (whole entry)
The test is described as follows: Agonist activity at human PPARgamma expressed in mouse NIH/3T3 cells assessed as receptor activation after 16 hrs by luciferase based reporter gene assay. In kind it is functional, cell-based, NIH3T3.

Usually EC50 stands for the concentration needed to bring the measured effect to its halfway point.

For `CC1(COc2ccc(CC3SC(=O)NC3=O)cc2)CCCCC1` (centres undefined), the fold change (FC) in test [1] stood at 15.
Turning to `C/C(=C/CC/C(C)=C/CC/C(C)=C/Cc1occc1C)C(=O)O` [SAURUFURAN A], the EC50 in test [2] stood at 16.7 µM. Further, in test [1], the fold change (FC) worked out at 13.5.
Consider `C/C(=C\CC/C(C)=C/Cc1occc1C)CC/C=C(\C)C(=O)O` [SAURUFURAN B], for which, in test [2], the EC50 is more than 100 µM.
